Measured values as given in ChEMBL document CHEMBL3301361, “Experimental in vitro DMPK and physicochemical data on a set of publicly disclosed compounds”.
Converted amounts (≈) assume the structure as drawn. Counter-ions that a name gives are not always drawn.

Key:
in vitro [1] = details: human, plasma
in vitro [2] = details: SD, HW or BN, rat, plasma
physchem [3] = details: octan-1-ol/water, pH 7.4, LogD7.4
physchem [4] = details: pH 7.4 buffer

| Compound | fraction unbound at 5 h (in vitro [1]; PPB) | fraction unbound at 5 h (in vitro [2]) | fraction unbound at 5 h (in vitro [1]) | logD (physchem [3]) | solubility thermodynamic (physchem [4]) [µM] |
| --- | --- | --- | --- | --- | --- |
| O=C(NCc1ccc(OCC(F)(F)F)nc1)C1c2ccccc2C(=O)N1CCc1ccccn1 (stereo not given) | 0.0928 | 0.371 |  |  |  |
| CN(c1ccccc1)S(=O)(=O)c1ccc(NC(=O)C(C)(O)C(F)(F)F)cc1 (stereo not given) | 0.0229 | 0.024 |  |  |  |
| O=C(N[C@@H]1COc2cccc(-c3ccc(CO)nc3)c2C1)c1ccc(OCCOCC(F)(F)F)nc1 | 0.0409 | 0.089 |  |  |  |
| NC(=O)c1cncc(-c2ccc([C@H]3CC[C@H](CC(=O)O)CC3)cc2)n1 | 0.035 | 0.0063 |  |  |  |
| Cc1nc(C(C)C)c(-c2ccc([C@H]3CC[C@H](CC(=O)O)CC3)cc2)nc1C(N)=O | 0.0219 | 0.0119 |  |  |  |
| O=c1cc(N2CCOCC2)nc(NCc2cccc(Cl)c2)[nH]1 | 0.0705 | 0.0477 |  |  |  |
| CCCCc1nc(Cl)c(C(=O)O)n1Cc1ccc(-c2ccccc2-c2nn[nH]n2)cc1 [CARBOXYLIC ACID METABOLITE] | 0.0049 | 0.0022 |  |  |  |
| COc1cnc(-c2cccc(F)c2C(F)(F)CNC(=O)c2ccc(COCC(F)(F)F)nc2)cn1 | 0.0328 | 0.0457 |  |  |  |
| Cc1onc(-c2c(Cl)cccc2Cl)c1CC(=O)NCc1ccc(OCC(F)(F)F)nc1 | 0.009 | 0.0457 |  |  |  |
| Nc1nc(-c2nn(Cc3ccccc3F)c3ncccc23)nc(N)c1N1CCOCC1 |  | 0.117 | 0.0768 |  |  |
| COCCNCC(=O)NC12CC3CC(CC(C3)C1)C2 | 0.5 | 0.483 |  |  |  |
| Cc1onc(-c2ccccc2)c1C(=O)N(C)c1ccc(Cl)cc1 | 0.0418 | 0.0752 |  |  |  |
| CCN(CCO)C(=O)c1oc2cccnc2c1-c1cccc(C(F)(F)F)c1 | 0.0872 | 0.139 |  |  |  |
| Cc1ccc(S(=O)(=O)Nc2ccc3nc(C)oc3c2)cc1 | 0.0209 | 0.051 |  |  |  |
| Cc1nc(C)c(-c2ccc([C@H]3CC[C@H](CC(=O)NC(C)(C)C(=O)O)CC3)cc2)nc1C(N)=O | 0.0784 | 0.0251 |  |  |  |
| Cc1nnc(-c2ccc(N3CCC(Oc4cc(F)ccc4Cl)CC3)nn2)o1 | 0.0179 | 0.0082 |  |  |  |
| O=c1cc(N2CCOCC2)nc(NCc2cccc3ccccc23)[nH]1 | 0.0321 | 0.0251 |  |  |  |
| Cc1ccc(S(=O)(=O)Nc2ccc3nc(C)sc3c2)cc1 |  | 0.0053 | 0.0021 |  |  |
| O=C(NCc1ccc(F)c(OC(F)(F)F)c1)C1c2ccccc2C(=O)N1CCc1ncc(F)cn1 (stereo not given) | 0.0321 | 0.0988 |  |  |  |
| CC(C)(C)OC(=O)N1CCC(OCc2nc(-c3ccncc3)no2)CC1 |  | 0.0752 |  | 3 | 269 (≈ 97 µg/mL) |
| N#Cc1cc(S(=O)(=O)Nc2ncc(Cl)s2)ccc1Oc1ccc(Cl)cc1-c1ccnn1C1CNC1 | 0.0081 | 0.0142 |  |  |  |
| Cc1cnc(-c2c(F)ccc(F)c2CCNC(=O)c2ccc(COCC(F)(F)F)nc2)cn1 | 0.0801 | 0.28 |  |  |  |
| CCC[C@H](c1ccc(C(=O)O)c(Oc2cccc(Cl)c2)c1)N1CCC[C@H](n2cc(C)c(=O)[nH]c2=O)C1 | 0.0119 | 0.016 |  |  |  |

| Compound | fraction unbound at 5 h (in vitro [1]; PPB) | fraction unbound at 5 h (in vitro [2]) | fraction unbound at 5 h (in vitro [1]) | logD (physchem [3]) | solubility thermodynamic (physchem [4]) [µM] |
| --- | --- | --- | --- | --- | --- |
| CC(Cc1ccccn1)N1C(=O)c2ccccc2C1C(=O)NCc1ccc(OC(F)(F)F)cc1 (stereo not given) | 0.0111 | 0.0366 |  |  |  |
| Cc1cc(C)c(C)c(Cn2ccc3c(/C=N/NC(=O)c4ccc(O)c(C#N)c4)cccc32)c1C | 0.04 | 0.0032 |  |  |  |
| CCN1CCC[C@H]1CNC(=O)c1c(O)c(Cl)cc(Cl)c1OC [RACLOPRIDE] | 0.11 | 0.557 |  |  |  |
| COC[C@H](C)Oc1cc(O[C@@H](C)Cc2ccccc2)cc(C(=O)Nc2ccc(C(=O)O)cn2)c1 |  | 0.0042 |  | 1.5 | 1480 (≈ 687 µg/mL) |
| CCOc1ccc([C@@H](C)Nc2nc(N3CCN(C(C)=O)CC3)nc3c2CN(C(C)C)C3=O)cc1F | 0.334 | 0.258 |  |  |  |
| O=c1cc(N2CCOCC2)nc(NCc2ccccc2)[nH]1 | 0.266 | 0.19 |  |  |  |
| O=C(NCc1ccc(OC(F)(F)F)cc1)C1c2cccc(O)c2C(=O)N1CCc1ncc(F)cn1 (stereo not given) | 0.0179 | 0.0418 |  |  |  |
| Cc1nn(-c2ccccc2)nc1C(=O)N[C@@H]1COc2cccc(N3CCN(C)CC3)c2C1 | 0.0418 | 0.0383 |  |  |  |
| CC(C)(C)OC(=O)N[C@H](Cc1ccccc1C(F)(F)F)C(=O)NCc1nc2cccnc2n1Cc1ccccc1 | 0.0111 | 0.002 |  |  |  |
| O=C(CCCN1CC[Si](O)(c2cccc(C(F)(F)F)c2)CC1)c1ccc(F)cc1 | 0.0409 | 0.0447 |  |  |  |
| CC(C)c1noc(C2CCN(c3ncnc(Nc4ccc(S(C)(=O)=O)cc4F)c3[N+](=O)[O-])CC2)n1 | 0.0099 | 0.016 |  |  |  |
| O=S(=O)(N[C@H](CO)C(C(F)(F)F)C(F)(F)F)c1ccc(Cl)s1 [BEGACESTAT] | 0.0909 | 0.11 |  |  |  |
| Cc1nc(C(F)F)c(C(N)=O)nc1-c1ccc([C@H]2CC[C@H](CC(=O)O)CC2)cc1 | 0.0544 | 0.0383 |  |  |  |
| CN(C)CCC1CCN(c2cc(C(=O)NC[C@H]3CC[C@H](CNC(=O)OC4CCOCC4)CC3)c3ccccc3n2)CC1 | 0.179 | 0.262 |  |  |  |
| CC1CN(c2cc(=O)[nH]c(NCc3cccc4ccccc34)n2)CCO1 (stereo not given) | 0.013 | 0.024 |  |  |  |
| COCCCC/C(=N\OCCN)c1ccc(C(F)(F)F)cc1 [FLUVOXAMINE MALEATE] | 0.266 | 0.224 |  |  |  |
| O=C(CC(c1ccccc1)c1ccccc1)N1CCN(C(c2ccccc2)c2ccccc2)CC1 [Z160] | 0.001 | 0.5 |  |  |  |
| Cc1cc(I)cc2c1NC(C(=O)O)C1CC=CC21 (stereo not given) | 0.002 | 0.007 |  |  |  |
| CC(C)C(NC(=O)c1ccccc1)C(=O)c1ccc([N+](=O)[O-])cc1 (stereo not given) | 0.0418 | 0.069 |  |  |  |
| Cc1ccc(S(=O)(=O)Nc2c(C(=O)NC3CCOCC3)c(C)nn2-c2ccccc2)cc1 | 0.0262 | 0.089 |  |  |  |
| O=C(NCc1ccc(OC(F)(F)F)cc1)C1c2ccccc2C(=O)N1CCc1ncc(F)cn1 (stereo not given) | 0.0477 | 0.0928 |  |  |  |
| COc1ncc(-c2cccc(C#N)c2CCNC(=O)c2ccc(OCCC(F)(F)F)nc2)cn1 | 0.119 | 0.139 |  |  |  |
| O=c1cc(Cn2c(C3CCC3)nc3nccnc32)c2ccc(F)c(F)c2[nH]1 | 0.201 | 0.16 |  |  |  |

| Compound | fraction unbound at 5 h (in vitro [1]; PPB) | fraction unbound at 5 h (in vitro [2]) | fraction unbound at 5 h (in vitro [1]) | logD (physchem [3]) | solubility thermodynamic (physchem [4]) [µM] |
| --- | --- | --- | --- | --- | --- |
| Cc1ncc(C(N)=S)nc1-c1ccc([C@H]2CC[C@H](CC(=O)O)CC2)cc1 | 0.028 | 0.0099 |  |  |  |
| Cc1c(F)cc(C(=O)NC2CC2)cc1-c1ccc(C(=O)NCC(C)(C)C)cn1 [LOSMAPIMOD] | 0.119 | 0.0818 |  |  |  |
| C[S+]([O-])Cc1ccc(C(=O)Nc2cccnc2C(=O)NCC2CCC2)c2ccccc12 (stereo not given) |  | 0.0119 | 0.013 |  |  |
| Cc1ccc(S(=O)(=O)NCCSc2nnnn2-c2ccc(C(N)=O)cc2)cc1 | 0.101 | 0.19 |  |  |  |
| CNc1ccc(-c2nc3ccc(O)cc3s2)cc1 [PITTSBURGH COMPOUND B UNLABELLED] | 0.0111 | 0.0183 |  |  |  |
| CC(C)(C)NC(=O)CN1CCN(CC(=O)NC23CC4CC(CC(C4)C2)C3)CC1 | 0.299 | 0.309 |  |  |  |
| O=C(NCc1ccc(F)c(C(F)(F)F)c1)C1c2ccccc2C(=O)N1CCc1ncc(F)cn1 (stereo not given) | 0.0477 | 0.129 |  |  |  |
| COc1ccc(C2CNC(=O)C2)cc1OC1CCCC1 (stereo not given) [ROLIPRAM] | 0.173 | 0.329 |  |  |  |
| C[N+](C)(Cc1ccc(NC(=O)c2ccc(Cl)c(Cl)c2)cc1)C1CCOCC1 [JNJ-17166864 CATION] | 0.179 | 0.387 |  |  |  |
| O=c1cc(N2CCOCC2)nc(NCc2cccc(Cl)c2Cl)[nH]1 | 0.0209 | 0.0179 |  |  |  |
| COc1ccc(NC(=O)c2ccc(C[S+](C)[O-])c3ccccc23)c(C(=O)NCC2CCOCC2)n1 (stereo not given) |  | 0.0437 | 0.0544 |  |  |
| CC(C)(C)[C@@H](O)C(=O)N1CCC[C@H]1C(=O)NCc1cc(Cl)ccc1CN | 0.58 | 0.5 |  |  |  |
| COc1ccc(CCC[N+](C)(CCCc2ccc(OC)cc2)CCNC(=O)c2nc(Cl)c(N)nc2N)cc1 | 0.163 | 0.157 |  |  |  |
| CC(C)NC[C@H](O)COc1cccc2ccccc12 [LEVOPROPRANOLOL] |  | 0.204 | 0.139 |  |  |
| O=C(O)CNC(=O)c1ncccc1O | 0.232 | 0.24 |  |  |  |
| O=C(NCc1ccc(OC(F)(F)F)cc1)C1c2ccccc2C(=O)N1CCc1ccccn1 (stereo not given) | 0.0358 | 0.0447 |  |  |  |
| Cc1ccc(NC(=O)c2cccc(N3CCOCC3)c2)cc1-n1cnc2ccc(N3CCN(C)CC3)cc2c1=O |  | 0.103 |  | 2.69 | 427 (≈ 230 µg/mL) |
| COc1ccc(CN2CCc3c([nH]c4ccccc34)C2)cc1OC |  | 0.0418 |  | 3.1 | 51.3 (≈ 16.5 µg/mL) |
| CN1CCN(S(=O)(=O)c2ccc(-c3cnc(N)c(C(=O)Nc4cnccc4CN4CCCC4)n3)cc2)CC1 | 0.0784 | 0.0988 |  |  |  |
| CC(C)C(NC(=O)c1ccccc1)C(=O)c1ccc(F)cc1 (stereo not given) | 0.0499 | 0.0836 |  |  |  |
| CCc1nn(C2CCCC2)c2c1CCn1c(-c3cccs3)nnc1-2 [TOFIMILAST] |  | 0.0477 |  |  | 22.4 (≈ 7.6 µg/mL) |
| N#Cc1ccc2[nH]c(-c3ccc(F)cc3)c(CCCC(=O)NS(=O)(=O)C(F)(F)F)c2c1 |  | 0.0661 |  |  | 309 (≈ 140 µg/mL) |
